According to ChEMBL document CHEMBL1201862, “PubChem BioAssay data set” (2004):
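The compound was tested at five concentrations on cells cultured in 96-well plates, with a 48-hour exposure period. Here, GI50 denotes the concentration required for 50% inhibition of growth.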 The source made the active and inactive calls. No stated cut-off is given here; in the data, active = GI50 up to about 1.1 µM and inactive = higher.

Columns and labels:
Assay in all cases: NCI-60 cell line screen, 48 h
XF498 = test system: XF498
HCT-15 = test system: HCT-15
HL-60 = test system: HL-60
IGROV-1 = test system: IGROV-1
RXF 631 = test system: RXF 631
RPMI-8226 = test system: RPMI-8226
NCI-H460 = test system: NCI-H460
HOP-92 = test system: HOP-92
UO-31 = test system: UO-31
NCI-H522 = test system: NCI-H522
HOP-62 = test system: HOP-62
Malme-3M = test system: Malme-3M
RXF 393 = test system: RXF 393
LOX IMVI = test system: LOX IMVI
DMS-114 = test system: DMS-114
CCRF-CEM = test system: CCRF-CEM
SK-MEL-5 = test system: SK-MEL-5
SK-OV-3 = test system: SK-OV-3
HT-29 = test system: HT-29
DMS-273 = test system: DMS-273
SR = test system: SR
OVCAR-4 = test system: OVCAR-4
CAKI-1 = test system: CAKI-1
SF-539 = test system: SF-539
SNB-19 = test system: SNB-19
HOP-18 = test system: HOP-18
NCI-H226 = test system: NCI-H226
A549 = test system: A549
SK-MEL-2 = test system: SK-MEL-2
TK-10 = test system: TK-10
SF-268 = test system: SF-268
SN12C = test system: SN12C
HCC 2998 = test system: HCC 2998
K562 = test system: K562
KM-20L2 = test system: KM-20L2
ACHN = test system: ACHN
EKVX = test system: EKVX
UACC-62 = test system: UACC-62
U-251 = test system: U-251
SF-295 = test system: SF-295
NCI-H23 = test system: NCI-H23
SNB-75 = test system: SNB-75
OVCAR-8 = test system: OVCAR-8
SW-620 = test system: SW-620
M14 = test system: M14
OVCAR-5 = test system: OVCAR-5
M19-MEL = test system: M19-MEL
MOLT-4 = test system: MOLT-4
SNB-78 = test system: SNB-78
HCT-116 = test system: HCT-116
DLD-1 = test system: DLD-1
UACC-257 = test system: UACC-257
OVCAR-3 = test system: OVCAR-3
LXFL 529 = test system: LXFL 529
A498 = test system: A498
KM12 = test system: KM12
COLO 205 = test system: COLO 205
SK-MEL-28 = test system: SK-MEL-28
786-0 = test system: 786-0

O=C1C=CC2=[N+]([O-])C(c3ccccc3)(c3ccccc3)/C(=N\c3ccccc3)C2=C1
GI50 (XF498): 1.31 µM (inactive) | GI50 (HCT-15): 2.03 µM | GI50 (HL-60): 0.349 µM (active) | GI50 (IGROV-1): 1.82 µM (inactive) | GI50 (RXF 631): 3.05 µM (inactive) | GI50 (RPMI-8226): 2.96 µM (inactive) | GI50 (NCI-H460): 11 µM (inactive) | GI50 (HOP-92): 1.7 µM (inactive) | GI50 (UO-31): 2.21 µM (inactive) | GI50 (NCI-H522): 1.61 µM (inactive) | GI50 (HOP-62): 14.6 µM (inactive) | GI50 (Malme-3M): 2.29 µM (inactive) | GI50 (RXF 393): 1.6 µM (inactive) | GI50 (LOX IMVI): 1.8 µM (inactive) | GI50 (DMS-114): 1.85 µM (inactive) | GI50 (CCRF-CEM): 0.407 µM (active) | GI50 (SK-MEL-5): 14.2 µM (inactive) | GI50 (SK-OV-3): 17.8 µM (inactive) | GI50 (HT-29): 2.41 µM (inactive) | GI50 (DMS-273): 2.38 µM (inactive) | GI50 (SR): 0.269 µM (active) | GI50 (OVCAR-4): 1.8 µM (inactive) | GI50 (CAKI-1): 2.44 µM (inactive) | GI50 (SF-539): 6.85 µM (inactive) | GI50 (SNB-19): 17.2 µM (inactive) | GI50 (HOP-18): 2.92 µM (inactive) | GI50 (NCI-H226): 8.89 µM (inactive) | GI50 (A549): 15.4 µM (inactive) | GI50 (SK-MEL-2): 18.2 µM (inactive) | GI50 (TK-10): 1.8 µM (inactive) | GI50 (SF-268): 3.28 µM (inactive) | GI50 (SN12C): 2.22 µM (inactive) | GI50 (HCC 2998): 6.3 µM (inactive) | GI50 (K562): 2.1 µM (inactive) | GI50 (KM-20L2): 2.34 µM (inactive) | GI50 (ACHN): 1.74 µM (inactive) | GI50 (EKVX): 4.14 µM (inactive) | GI50 (UACC-62): 2.1 µM (inactive) | GI50 (U-251): 2.5 µM (inactive) | GI50 (SF-295): 14.5 µM (inactive) | GI50 (NCI-H23): 2.38 µM (inactive) | GI50 (SNB-75): 3.22 µM (inactive) | GI50 (OVCAR-8): 1.75 µM (inactive) | GI50 (SW-620): 1.91 µM (inactive) | GI50 (M14): 1.97 µM (inactive) | GI50 (OVCAR-5): 16.4 µM (inactive) | GI50 (M19-MEL): 1.77 µM (inactive) | GI50 (MOLT-4): 1.27 µM (inactive) | GI50 (SNB-78): 3.74 µM (inactive) | GI50 (HCT-116): 1.97 µM (inactive) | GI50 (DLD-1): 1.53 µM (inactive) | GI50 (UACC-257): 2.38 µM (inactive) | GI50 (OVCAR-3): 1.82 µM (inactive) | GI50 (LXFL 529): 1.78 µM (inactive)

COc1ccc(/C=C/c2cc(OC)cc(OC)c2)cc1 [TRISMETHOXYRESVERATROL]
GI50 (XF498): 8.43 µM (inactive) | GI50 (HCT-15): 4.57 µM | GI50 (HL-60): 2.56 µM (inactive) | GI50 (IGROV-1): 6.44 µM (inactive) | GI50 (RXF 631): 4.2 µM (inactive) | GI50 (RPMI-8226): 3.56 µM (inactive) | GI50 (NCI-H460): 3.73 µM (inactive) | GI50 (HOP-92): 8.07 µM (inactive) | GI50 (UO-31): 18.2 µM (inactive) | GI50 (NCI-H522): 2.68 µM (inactive) | GI50 (HOP-62): 4.92 µM (inactive) | GI50 (Malme-3M): 6.12 µM (inactive) | GI50 (RXF 393): 3.05 µM (inactive) | GI50 (A498): 6.18 µM (inactive) | GI50 (LOX IMVI): 6.7 µM (inactive) | GI50 (DMS-114): 3.5 µM (inactive) | GI50 (CCRF-CEM): 3.97 µM (inactive) | GI50 (SK-MEL-5): 4.23 µM (inactive) | GI50 (SK-OV-3): 4.14 µM (inactive) | GI50 (HT-29): 3.88 µM (inactive) | GI50 (DMS-273): 3.79 µM (inactive) | GI50 (SR): 4.24 µM (inactive) | GI50 (OVCAR-4): 18.9 µM (inactive) | GI50 (CAKI-1): 4.6 µM (inactive) | GI50 (SF-539): 3.54 µM (inactive) | GI50 (SNB-19): 20.7 µM (inactive) | GI50 (KM12): 4.17 µM (inactive) | GI50 (HOP-18): > 24.3 µM (inactive) | GI50 (NCI-H226): 5.43 µM (inactive) | GI50 (A549): 6.32 µM (inactive) | GI50 (SK-MEL-2): 6.07 µM (inactive) | GI50 (COLO 205): 3.41 µM (inactive) | GI50 (TK-10): 12.6 µM (inactive) | GI50 (SF-268): 7.93 µM (inactive) | GI50 (SN12C): 9.95 µM (inactive) | GI50 (SK-MEL-28): 3.82 µM (inactive) | GI50 (HCC 2998): 9.79 µM (inactive) | GI50 (K562): 4.33 µM (inactive) | GI50 (786-0): 9.66 µM (inactive) | GI50 (KM-20L2): 3.15 µM (inactive) | GI50 (ACHN): 7.08 µM (inactive) | GI50 (EKVX): > 22.4 µM (inactive) | GI50 (UACC-62): 3.56 µM (inactive) | GI50 (U-251): 4.06 µM (inactive) | GI50 (SF-295): 4.38 µM (inactive) | GI50 (NCI-H23): 6.98 µM (inactive) | GI50 (SNB-75): 4.82 µM (inactive) | GI50 (OVCAR-8): 22.1 µM (inactive) | GI50 (SW-620): 4.98 µM (inactive) | GI50 (M14): 6.53 µM (inactive) | GI50 (OVCAR-5): 14 µM (inactive) | GI50 (M19-MEL): 6.31 µM (inactive) | GI50 (MOLT-4): 4.51 µM (inactive) | GI50 (SNB-78): 3.98 µM (inactive) | GI50 (HCT-116): 4.17 µM (inactive) | GI50 (DLD-1): 5.28 µM (inactive) | GI50 (UACC-257): 4.62 µM (inactive) | GI50 (OVCAR-3): 3.3 µM (inactive) | GI50 (LXFL 529): 4.86 µM (inactive)

CCOC(OC1=C(C#N)CCCC1)C(CC)[Se]c1ccccc1 (stereo unspecified)
GI50 (XF498): 20.4 µM (inactive) | GI50 (HCT-15): 16.2 µM | GI50 (HL-60): 10.1 µM (inactive) | GI50 (IGROV-1): 20.7 µM (inactive) | GI50 (RXF 631): 11.3 µM (inactive) | GI50 (RPMI-8226): 16.2 µM (inactive) | GI50 (NCI-H460): 17.8 µM (inactive) | GI50 (HOP-92): 25 µM (inactive) | GI50 (UO-31): 37.8 µM (inactive) | GI50 (NCI-H522): 14.7 µM (inactive) | GI50 (HOP-62): 59.7 µM (inactive) | GI50 (Malme-3M): 31 µM (inactive) | GI50 (RXF 393): 15 µM (inactive) | GI50 (A498): 13.6 µM (inactive) | GI50 (LOX IMVI): 9.25 µM (inactive) | GI50 (DMS-114): 4.1 µM (inactive) | GI50 (CCRF-CEM): 15.7 µM (inactive) | GI50 (SK-MEL-5): 16.4 µM (inactive) | GI50 (SK-OV-3): > 100 µM (inactive) | GI50 (HT-29): 29 µM (inactive) | GI50 (DMS-273): 12 µM (inactive) | GI50 (SR): 7.8 µM (inactive) | GI50 (OVCAR-4): 19.3 µM (inactive) | GI50 (CAKI-1): 53.1 µM (inactive) | GI50 (SF-539): 14.3 µM (inactive) | GI50 (SNB-19): 39.9 µM (inactive) | GI50 (KM12): > 100 µM (inactive) | GI50 (HOP-18): 16.4 µM (inactive) | GI50 (NCI-H226): 19.4 µM (inactive) | GI50 (A549): 39.4 µM (inactive) | GI50 (SK-MEL-2): 29.4 µM (inactive) | GI50 (COLO 205): 17.5 µM (inactive) | GI50 (TK-10): > 100 µM (inactive) | GI50 (SF-268): 12.1 µM (inactive) | GI50 (SN12C): 16.3 µM (inactive) | GI50 (SK-MEL-28): 23.6 µM (inactive) | GI50 (HCC 2998): 35.2 µM (inactive) | GI50 (K562): 38.9 µM (inactive) | GI50 (786-0): 17.4 µM (inactive) | GI50 (KM-20L2): 25.1 µM (inactive) | GI50 (ACHN): 30.1 µM (inactive) | GI50 (EKVX): 24.4 µM (inactive) | GI50 (UACC-62): 13.7 µM (inactive) | GI50 (U-251): 13 µM (inactive) | GI50 (SF-295): 27.6 µM (inactive) | GI50 (NCI-H23): 14.3 µM (inactive) | GI50 (SNB-75): 29.3 µM (inactive) | GI50 (OVCAR-8): 16.8 µM (inactive) | GI50 (M14): 26.3 µM (inactive) | GI50 (OVCAR-5): 32.4 µM (inactive) | GI50 (M19-MEL): 19.4 µM (inactive) | GI50 (MOLT-4): 20.7 µM (inactive) | GI50 (SNB-78): 33.8 µM (inactive) | GI50 (HCT-116): 14.5 µM (inactive) | GI50 (DLD-1): 16.1 µM (inactive) | GI50 (UACC-257): 46.7 µM (inactive) | GI50 (OVCAR-3): 19.9 µM (inactive) | GI50 (LXFL 529): 19.4 µM (inactive)
